Test results from ChEMBL document CHEMBL6074635, “Replacement of the essential nitro group by electrophilic warheads towards nitro-free antimycobacterial benzothiazinones” (Eur J Med Chem, 2024).

Assays:
[1] = molecular target: T1, Decaprenylphosphoryl-beta-D-ribose oxidase (Mycobacterium tuberculosis (strain ATCC 25618 / H37Rv)) (UniProt P9WJF1); assay: Substrate activity at recombinant Mycobacterium tuberculosis DprE1 extracted from Escherichia coli BL21(DE3) assessed as fold change in Km incubated for 60 mins by resazurin dye based fluorescence plate reader analysis relative to FPR
T1 sequence (whole entry): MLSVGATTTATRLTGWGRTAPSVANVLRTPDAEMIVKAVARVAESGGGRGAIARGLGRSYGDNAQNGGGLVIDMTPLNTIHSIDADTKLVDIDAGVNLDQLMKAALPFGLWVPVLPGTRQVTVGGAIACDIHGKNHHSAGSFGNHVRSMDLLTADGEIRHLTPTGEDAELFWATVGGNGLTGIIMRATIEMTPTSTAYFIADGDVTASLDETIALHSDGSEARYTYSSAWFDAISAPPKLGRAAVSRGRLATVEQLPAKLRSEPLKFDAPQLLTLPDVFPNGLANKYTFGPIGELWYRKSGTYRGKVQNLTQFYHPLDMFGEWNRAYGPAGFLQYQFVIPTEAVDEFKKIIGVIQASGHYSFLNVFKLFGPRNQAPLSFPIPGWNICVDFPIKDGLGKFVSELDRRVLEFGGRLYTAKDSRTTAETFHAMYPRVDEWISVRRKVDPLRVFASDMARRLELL

[2] = molecular target: T1, Decaprenylphosphoryl-beta-D-ribose oxidase (Mycobacterium tuberculosis (strain ATCC 25618 / H37Rv)); assay: Covalent inhibition of recombinant Mycobacterium tuberculosis DprE1 extracted from Escherichia coli BL21(DE3) assessed as inactivation rate constant (Kinact) using FPR/GGPR as substrate incubated for 60 mins by resazurin dye based fluorescence plate reader analysis
[3] = molecular target: T1, Decaprenylphosphoryl-beta-D-ribose oxidase (Mycobacterium tuberculosis (strain ATCC 25618 / H37Rv)); assay: Covalent inhibition of recombinant Mycobacterium tuberculosis DprE1 extracted from Escherichia coli BL21(DE3) assessed as Kinact/Ki ratio using FPR/GGPR as substrate incubated for 60 mins by resazurin dye based fluorescence plate reader analysis
[4] = molecular target: T1, Decaprenylphosphoryl-beta-D-ribose oxidase (Mycobacterium tuberculosis (strain ATCC 25618 / H37Rv)); assay: Reversible inhibition of recombinant Mycobacterium tuberculosis DprE1 extracted from Escherichia coli BL21(DE3) using FPR/GGPR as substrate by measuring fold change incubated for 60 mins by resazurin dye based fluorescence plate reader analysis relative to (S)-2-Fluoro-N-(2-(2-methyl-1,4-dioxa-8-azaspiro[4.5]decan-8-yl)-4-oxo-6-(trifluoromethyl)-4H-benzo[e][1,3]thiazin-8-yl)acrylamide

For CC(C)=CCC/C(C)=C/CC/C(C)=C/CC/C(C)=C/COP(=O)(O)OC1O[C@H](CO)[C@@H](O)[C@H]1O (some centres undefined), the fold change (FC) [1] was 22.

Molecule C[C@H]1COC2(CCN(c3nc(=O)c4cc(C(F)(F)F)cc(NC(=O)C(C)(C)Br)c4s3)CC2)O1 has a Kinact [2] of 0.067 min⁻¹ and a Ratio [3] of 2.13 M⁻¹ s⁻¹.

Molecule C=CS(=O)(=O)Nc1cc(C(F)(F)F)cc2c(=O)nc(N3CCC4(CC3)OC[C@H](C)O4)sc12 has a fold change (FC) [4] of 8.
